Holding throughout (assay type): cell-based, human
The subject of experiment [1] is lymphocytes (CD4, CD8). Description: Activation of CD4 and CD8 lymphocytes (CD25, CD69 flow cytometry). To be noted: LCC-12 10 μM, 48 h, CD3/CD28 activation; FIG. 6A-B. On the procedure: CD4 Lymphocytes. Peripheral blood samples were collected from healthy donors (Etablissement Français du Sang). CD4 lymphocytes were isolated by negative magnetic sorting using microbeads according to the manufacturer's instructions (Miltenyi Biotec, 130-096-533) and cultured in RPM11640 supplemented with glutamine and 10% fetal bovine serum. CD4 lymphocytes were activated for 48 h using CD3/CD28 antibodies (2.5 μg/mL), in presence of LCC-12 (10 μM). The activation status of the lymphocytes was assessed by measuring CD25 and CD69 surface markers by flow cytometry.
CD8 Lymphocytes. Peripheral blood samples were collected from healthy donors (Etablissement Français du Sang). CD8 lymphocytes were isolated by negative magnetic sorting using microbeads according to the manufacturer's instructions (Miltenyi Biotec, 130-096-495) and cultured in RPM11640 supplemented with glutamine and 10% fetal bovine serum. CD8 lymphocytes were activated 48 h using CD3/CD28 antibodies (2.5 μg/mL), in presence of LCC-12 (10 μM). The activation status of the lymphocytes was assessed by measuring CD25 and CD69 surface markers by flow cytometry.
(In flow cytometry, cells or beads pass a laser one at a time.)

Experiment [2] relates to αKG in activated MDM. As to the kind of experiment: α-Ketoglutarate (αKG) fluorometric quantification in activated MDM. To be noted: Met 10 mM, LCC-12 10 μM; FIG. 3B. On the procedure:
(§1) Cell culture. Peripheral blood samples were collected from distinct healthy donors (Etablissement Français du Sang). Pan monocytes were isolated by negative magnetic sorting using microbeads according to the manufacturer's instructions (Miltenyi Biotec, 130-096-537), and cultured in RPMI 1640 supplemented with glutamine (Thermo Fisher Scientific, 61870010), 10% fetal bovine serum and exposed to granulocyte-macrophage colony-stimulating factor (GM-CSF, Miltenyi Biotec, 130-093-866, 100 ng/mL) to induce differentiation into macrophages (MDM). […]
α-Ketoglutarate (αKG) measurements. αKG was quantified using a fluorometric assay (Abcam, ab83431) according to the manufacturer's protocol. […] Cells were subsequently washed with ice-cold 1×PBS and counted. […] Samples were centrifuged at 13000× g for 15 min and the supernatants collected. αKG levels were measured using a standard curve and a control to subtract pyruvate background levels. Fluorescence intensities (ex. 535 nm; em. 590 nm) were recorded using a Perkin Elmer Wallac 1420 Victor2 Microplate Reader, and data were normalized against cell number. […]

For experiment [3], the system named is inflammatory genes in activated MDM. As to the kind of experiment: RNA-seq gene expression in activated MDM. To be noted: LCC-12 10 μM; FIG. 4A-C. As for the experimental part: as §1
RNA-seq. […] Sequencing was carried out on a NovaSeq 6000 instrument from Illumina based on a 2×100 cycle mode (paired-end reads, 100 bases). Raw sequencing reads were first checked for quality with Fastqc (0.11.8) and trimmed for adapter sequences with the trimGalore (0.6.2) software. Trimmed reads were then aligned on the human hg38 reference genome using the STAR mapper (2.6.1b), up to the generation of a raw count table per gene (GENCODE annotation v29). […] Raw data from (Fernandes et al., 2016, 7, e00027-16; Gongalves et al., 2020, Nat. Commun. 11, 2282) were downloaded from the NCBI Short Read Archive under records PRJNA528433 and PRJNA290995 and processed as described above. […] Differential expression was assessed with the limma voom framework (v 3.44.3) (Ritchie et al., 2015, Nucleic Acids Res. 43, e47). […]

The subject of experiment [4] is inflammatory macrophages (act. MDM). Description: Flow cytometry of CD80 and CD86 cell surface markers in activated MDM (Example 2). To be noted: LCC-12 10 μM; FIG. 4F. As for the experimental part:
Cell culture. Peripheral blood samples were collected from distinct healthy donors (Etablissement Français du Sang). Pan monocytes were isolated by negative magnetic sorting using microbeads according to the manufacturer's instructions (Miltenyi Biotec, 130-096-537), and cultured in RPMI 1640 supplemented with glutamine (Thermo Fisher Scientific, 61870010), 10% fetal bovine serum and exposed to granulocyte-macrophage colony-stimulating factor (GM-CSF, Miltenyi Biotec, 130-093-866, 100 ng/mL) to induce differentiation into macrophages (MDM). At day 5 of differentiation, MDM were treated with lipopolysaccharides (LPS, InvivoGen, tlrl-3pelps, 100 ng/mL, 24 h) and interferon-γ (IFNγ, Miltenyi Biotec, 130-096-484, 20 ng/mL, 24 h) to generate activated MDM (act. MDM) and were co-treated with metformin (Met, 1,1-dimethylbiguanid hydrochloride, Alfa Aesar, J63361, 10 mM, 24 h) or LCC-12 (in-house, 10 μM, 24 h) as indicated.
Flow cytometry. […] Macrophages were analyzed with an antibody panel consisting of antibodies against the following cell surface proteins: CD44, CD80, CD86 and TfR1. The data were analyzed with FlowJo software v. […] Flow cytometry analysis of lysosomal iron content: Lysosomal iron was monitored by incubating cells at 37° C. with 5% CO2 in medium containing RhoNox-M (in-house, 1 μM, 1 h), before flow analysis of fluorescence intensity.

With `N=C(N)NC(=N)NCCCCCCCCCCCCNC(=N)NC(=N)N` [LCC-12, lipophilic copper clamp C12], the activation of lymphocytes result in experiment [1] is “decreases the activation”. Besides, the “increase of αKG in activated MDM” value in experiment [2] is reported as “more potent than Met at a dose 1000-fold lower”. The “expression of inflammatory genes compared to activated MDM” value in experiment [3] is given as “reduced expression of a subset of inflammatory genes”. Further, in experiment [4], the “production of inflammatory macrophages according to CD80 and CD86 cell surface markers” value is “interfered with the production of inflammatory macrophages”.
